Test results as given in PubChem BioAssay (NCI).
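At the GI50, growth is halved. The concentration for full growth arrest is given as TGI.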

Assays:
Test in all cases: inhibition of tumour cell growth, NCI panel, 384-well format
786-0 renal = test system: 786-0 renal
A498 renal = test system: A498 renal
A549 NSCLC = test system: A549 NSCLC
ACHN renal = test system: ACHN renal
BT-549 breast = test system: BT-549 breast
CAKI-1 renal = test system: CAKI-1 renal
CCRF-CEM leukemia = test system: CCRF-CEM leukemia
COLO 205 colon = test system: COLO 205 colon
DU-145 prostate = test system: DU-145 prostate
EKVX NSCLC = test system: EKVX NSCLC
HCC-2998 colon = test system: HCC-2998 colon
HCT-116 colon = test system: HCT-116 colon
HCT-15 colon = test system: HCT-15 colon
HL-60(TB) leukemia = test system: HL-60(TB) leukemia
HOP-62 NSCLC = test system: HOP-62 NSCLC
HOP-92 NSCLC = test system: HOP-92 NSCLC
HS 578T breast = test system: HS 578T breast
HT29 colon = test system: HT29 colon
IGROV1 ovarian = test system: IGROV1 ovarian
K-562 leukemia = test system: K-562 leukemia
KM12 colon = test system: KM12 colon
LOX IMVI melanoma = test system: LOX IMVI melanoma
M14 melanoma = test system: M14 melanoma
MALME-3M melanoma = test system: MALME-3M melanoma
MCF7 breast = test system: MCF7 breast
MDA-MB-231 breast = test system: MDA-MB-231 breast
MDA-MB-435 melanoma = test system: MDA-MB-435 melanoma
MDA-MB-468 breast = test system: MDA-MB-468 breast
MOLT-4 leukemia = test system: MOLT-4 leukemia
NCI-H226 lung = test system: NCI-H226 lung
NCI-H23 lung = test system: NCI-H23 lung
NCI-H322M lung = test system: NCI-H322M lung
NCI-H460 NSCLC = test system: NCI-H460 NSCLC
NCI-H522 lung = test system: NCI-H522 lung
NCI/ADR-RES ovarian = test system: NCI/ADR-RES ovarian
OVCAR-3 ovarian = test system: OVCAR-3 ovarian
OVCAR-4 ovarian = test system: OVCAR-4 ovarian
OVCAR-5 ovarian = test system: OVCAR-5 ovarian
OVCAR-8 ovarian = test system: OVCAR-8 ovarian
PC-3 prostate = test system: PC-3 prostate
RPMI-8226 leukemia = test system: RPMI-8226 leukemia
RXF 393 renal = test system: RXF 393 renal
SF-268 CNS = test system: SF-268 CNS
SF-295 CNS = test system: SF-295 CNS
SF-539 CNS = test system: SF-539 CNS
SK-MEL-28 melanoma = test system: SK-MEL-28 melanoma
SK-MEL-5 melanoma = test system: SK-MEL-5 melanoma
SK-OV-3 ovarian = test system: SK-OV-3 ovarian
SN12C renal = test system: SN12C renal
SNB-19 CNS = test system: SNB-19 CNS
SNB-75 CNS = test system: SNB-75 CNS
SW-620 colon = test system: SW-620 colon
T-47D breast = test system: T-47D breast
TK-10 renal = test system: TK-10 renal
U251 glioblastoma = test system: U251 glioblastoma
UACC-257 melanoma = test system: UACC-257 melanoma
UACC-62 melanoma = test system: UACC-62 melanoma
UO-31 renal = test system: UO-31 renal

In the case of `O=C1[C@H](Cc2ccc(O)cc2)N2C(=O)CCN(C(=O)NCc3ccccc3)[C@H]2CN1Cc1cccc2ccccc12`, the GI50 ([…]-0 renal) is reported as 2.76 µM, the TGI (786-0 renal) is reported as 16.9 µM and the GI50 (A498 renal) is reported as 2.9 µM. For the same molecule, the TGI (A498 renal) was 9.62 µM, the GI50 (A549 NSCLC) was 1.83 µM and the TGI (A549 NSCLC) was 13.8 µM. It also gave a GI50 (ACHN renal) of 10.7 µM, a TGI (ACHN renal) of 37.7 µM and a GI50 (BT-549 breast) of 1.28 µM. The TGI (BT-549 breast) was 11.6 µM, the GI50 (CAKI-1 renal) was 2.15 µM and the TGI (CAKI-1 renal) was 5.94 µM. The GI50 (CCRF-CEM leukemia) was 1.33 µM, the TGI (CCRF-CEM leukemia) was 7.73 µM and the GI50 (COLO 205 colon) was 0.662 µM. For the same molecule, the TGI (COLO 205 colon) was 10.2 µM, the GI50 (DU-145 prostate) was 4.25 µM and the TGI (DU-145 prostate) was 17.1 µM. It also gave a GI50 (EKVX NSCLC) of 6.96 µM, a TGI (EKVX NSCLC) of 30.7 µM and a GI50 (HCC-2998 colon) of 2.1 µM. The TGI (HCC-2998 colon) was 15.3 µM, the GI50 (HCT-116 colon) was 0.738 µM and the TGI (HCT-116 colon) was 11.8 µM. For the same molecule, the GI50 (HCT-15 colon) was 18.9 µM, the TGI (HCT-15 colon) was 82.9 µM and the GI50 (HL-60(TB) leukemia) was 3.98 µM. The TGI (HL-60(TB) leukemia) was 15 µM, the GI50 (HOP-62 NSCLC) was 2.99 µM and the TGI (HOP-62 NSCLC) was 11.9 µM. For the same molecule, the GI50 (HOP-92 NSCLC) was 0.386 µM, the TGI (HOP-92 NSCLC) was 1.88 µM and the GI50 (HS 578T breast) was 0.182 µM. The TGI (HS 578T breast) was 0.77 µM, the GI50 (HT29 colon) was 3.17 µM and the TGI (HT29 colon) was 15.8 µM. The GI50 (IGROV1 ovarian) was 0.353 µM, the TGI (IGROV1 ovarian) was 2.49 µM and the GI50 (K-562 leukemia) was 0.828 µM. For the same molecule, the TGI (K-562 leukemia) was 14.1 µM, the GI50 (KM12 colon) was 2.82 µM and the TGI (KM12 colon) was 13.6 µM. It also gave a GI50 (LOX IMVI melanoma) of 1.15 µM, a TGI (LOX IMVI melanoma) of 5.36 µM and a GI50 (M14 melanoma) of 2.78 µM. It also gave a TGI (M14 melanoma) of 12.4 µM, a GI50 (MALME-3M melanoma) of 1.24 µM and a TGI (MALME-3M melanoma) of 5.89 µM. For the same molecule, the GI50 (MCF7 breast) was 5.44 µM, the TGI (MCF7 breast) was 20 µM and the GI50 (MDA-MB-231 breast) was 0.556 µM. The TGI (MDA-MB-231 breast) was 12 µM, the GI50 (MDA-MB-435 melanoma) was 4.85 µM and the TGI (MDA-MB-435 melanoma) was 17.7 µM. For the same molecule, the GI50 (MDA-MB-468 breast) was 3.46 µM, the TGI (MDA-MB-468 breast) was 15.6 µM and the GI50 (MOLT-4 leukemia) was 0.319 µM. It also gave a TGI (MOLT-4 leukemia) of 1.19 µM, a GI50 (NCI-H226 lung) of 2.95 µM and a TGI (NCI-H226 lung) of 11.1 µM. The GI50 (NCI-H23 lung) was 4.97 µM, the TGI (NCI-H23 lung) was 17.7 µM and the GI50 (NCI-H322M lung) was 3.72 µM. It also gave a TGI (NCI-H322M lung) of 19.1 µM, a GI50 (NCI-H460 NSCLC) of 0.858 µM and a TGI (NCI-H460 NSCLC) of 5.2 µM. For the same molecule, the GI50 (NCI-H522 lung) was 0.518 µM, the TGI (NCI-H522 lung) was 12.6 µM and the GI50 (NCI/ADR-RES ovarian) was over 100 µM. It also gave a TGI (NCI/ADR-RES ovarian) of over 100 µM, a GI50 (OVCAR-3 ovarian) of 0.632 µM and a TGI (OVCAR-3 ovarian) of 6.89 µM. For the same molecule, the GI50 (OVCAR-4 ovarian) was 2.92 µM, the TGI (OVCAR-4 ovarian) was 17.2 µM and the GI50 (OVCAR-5 ovarian) was 1.44 µM. The TGI (OVCAR-5 ovarian) was 9.66 µM, the GI50 (OVCAR-8 ovarian) was 1.35 µM and the TGI (OVCAR-8 ovarian) was 11.9 µM. For the same molecule, the GI50 (PC-3 prostate) was 1.74 µM, the TGI (PC-3 prostate) was 9.23 µM and the GI50 (RPMI-8226 leukemia) was 2.03 µM. It also gave a TGI (RPMI-8226 leukemia) of 12.3 µM, a GI50 (RXF 393 renal) of 3.22 µM and a TGI (RXF 393 renal) of 14.6 µM. The GI50 (SF-268 CNS) was 0.287 µM, the TGI (SF-268 CNS) was 0.792 µM and the GI50 (SF-295 CNS) was 3.79 µM. The TGI (SF-295 CNS) was 13.7 µM, the GI50 (SF-539 CNS) was 0.564 µM and the TGI (SF-539 CNS) was 9.79 µM. It also gave a GI50 (SK-MEL-28 melanoma) of 1.98 µM, a TGI (SK-MEL-28 melanoma) of 11.4 µM and a GI50 (SK-MEL-5 melanoma) of 1.33 µM. It also gave a TGI (SK-MEL-5 melanoma) of 4.11 µM, a GI50 (SK-OV-3 ovarian) of 1.66 µM and a TGI (SK-OV-3 ovarian) of 10.3 µM. For the same molecule, the GI50 (SN12C renal) was 2.78 µM, the TGI (SN12C renal) was 16.8 µM and the GI50 (SNB-19 CNS) was 0.678 µM. For the same molecule, the TGI (SNB-19 CNS) was 21.8 µM, the GI50 (SNB-75 CNS) was 0.421 µM and the TGI (SNB-75 CNS) was 2.23 µM. For the same molecule, the GI50 (SW-620 colon) was 7.63 µM, the TGI (SW-620 colon) was over 100 µM and the GI50 (T-47D breast) was 0.441 µM. The TGI (T-47D breast) was 3.68 µM, the GI50 (TK-10 renal) was 6.57 µM and the TGI (TK-10 renal) was 24.1 µM. For the same molecule, the GI50 (U251 glioblastoma) was 0.578 µM, the TGI (U251 glioblastoma) was 11.2 µM and the GI50 (UACC-257 melanoma) was 3.45 µM. It also gave a TGI (UACC-257 melanoma) of 14 µM, a GI50 (UACC-62 melanoma) of 1.35 µM and a TGI (UACC-62 melanoma) of 8.06 µM. It also gave a GI50 (UO-31 renal) of 16.1 µM and a TGI (UO-31 renal) of 33.3 µM.
